Assay results reported in ChEMBL document CHEMBL3217637, “Temocene: the porphycene analogue of temoporfin (Foscan)” (Medchemcomm, 2011).
The source made the active and inactive calls. The rule behind the calls is not given here.

Key:
[1] = Photostability of the compound in aerated acetone under irradiation at 532 nm laser pulses; format: physicochemical; parameters: dose or concentration left out as unconfirmed
HeLa [2] = experiment: Cytotoxicity against human HeLa cells assessed as decrease in cell viability under dark condition after 18 hrs by MTT assay; format: cell-based
HeLa [3] = experiment: Phototoxicity against human HeLa cells assessed as decrease in cell viability at > 5 uM preincubated for 18 hrs followed by 3.5 J/cm'2 of photoirradiation measured after 24 hrs by MTT assay; format: functional, cell-based
HeLa [4] = experiment: Phototoxicity against human HeLa cells assessed as decrease in cell viability at < 5 uM preincubated for 18 hrs followed by > 3.5 J/cm'2 of photoirradiation measured after 24 hrs by MTT assay; format: functional, cell-based
HeLa [5] = experiment: Cellular uptake in human HeLa cells under ultraviolet irradiation at 365 nm at 0.5 uM after 18 hrs by mitotracker green staining-based fluorescence microscopic analysis; format: ADME, cell-based
[6] = Cellular uptake in mitochondria of human HeLa cells under ultraviolet irradiation at 365 nm at 1 to 10 uM after 18 hrs by mitotracker green staining-based fluorescence microscopic analysis; format: ADME
[7] = Cellular uptake in cytoplasm of human HeLa cells under ultraviolet irradiation at 365 nm at 1 to 10 uM after 18 hrs by mitotracker green staining-based fluorescence microscopic analysis; format: ADME, cell-based
[8] = Cellular uptake in cytoplasm of human HeLa cells under prolonged irradiation at 365 nm up to 10 uM after 18 hrs by mitotracker green staining-based fluorescence microscopic analysis; format: ADME, cell-based
[9] = Cellular uptake in mitochondria of human HeLa cells under prolonged irradiation at 365 nm up to 10 uM after 18 hrs by mitotracker green staining-based fluorescence microscopic analysis; format: ADME

## Oc1cccc(C2=Cc3nc2ccc2[nH]c(cc2-c2cccc(O)c2)c2nc(ccc4[nH]c3cc4-c3cccc(O)c3)C(c3cccc(O)c3)=C2)c1
[1]
  Stability: Stable
HeLa [2]
  Activity: Non-toxic
HeLa [3]
  Activity: Active
HeLa [4]
  Activity: Active
HeLa [5]
  Drug uptake: Not Active
[6]
  Drug uptake: Active
[7]
  Drug uptake: Active
[8]
  Drug uptake: Active
[9]
  Drug uptake: Active

## Oc1cccc(-c2c3nc(c(-c4cccc(O)c4)c4ccc([nH]4)c(-c4cccc(O)c4)c4nc(c(-c5cccc(O)c5)c5ccc2[nH]5)CC4)C=C3)c1 [TEMOPORFIN]
[1]
  Stability: Stable
HeLa [2]
  Activity: Toxic
